Test results taken from patent US11078245B2, “Colon and pancreas cancer peptidomimetics” (PRECISION BIOLOGICS, INC., priority 2010, dated 2021).

B1: Construct 1-289: C-terminal truncation construct of MUC5AC, SEQ ID NO: 49 (protein)
chain: ATMSVGRRKLALLWALALALACTTTHSQPVTRDCHLRCTWTKWFDVDFPSPGPHGGDKETYNNIIRSGEKICRRPEEITRLQCRAESHPEVSIEHLGQVVQCSREEGLVCRNQDQQGPFKMCLNYEVRVLCCETPKGCPVTSTPVTAPSTPSGRATSPTQSTSSWQKSRTTTLVTTSTTSTPQTSTTSAPTTSTTSAPTTSTTSAPTTSTTSTPQTSISSAPTSSTTSAPTSSTISARTTSIISAPTTSTTSSPTTSTTSATTTSTTSAPTSSTTSTPQTSKTSAATSS
modifications: MUC5AC truncation construct (289)
B2: 1-289 (protein)
chain: B1 chain
modifications: MUC5AC truncation construct (289)
B3: Construct 1-85: C-terminal truncation construct of MUC5AC, SEQ ID NO: 45 (protein)
chain: ATMSVGRRKLALLWALALALACTTTHSQPVTRDCHLRCTWTKWFDVDFPSPGPHGGDKETYNNIIRSGEKICRRPEEITRLQCRA
modifications: MUC5AC truncation construct (85)
B4: 1-85 (protein)
chain: B3 chain
modifications: MUC5AC truncation construct (85)
B5: Construct 1-187: C-terminal truncation construct of MUC5AC, SEQ ID NO: 48 (protein)
chain: ATMSVGRRKLALLWALALALACTTTHSQPVTRDCHLRCTWTKWFDVDFPSPGPHGGDKETYNNIIRSGEKICRRPEEITRLQCRAESHPEVSIEHLGQVVQCSREEGLVCRNQDQQGPFKMCLNYEVRVLCCETPKGCPVTSTPVTAPSTPSGRATSPTQSTSSWQKSRTTTLVTTSTTSTPQTSTT
modifications: MUC5AC truncation construct (187)
B6: 1-187 (protein)
chain: B5 chain
modifications: MUC5AC truncation construct (187)
B7: 1-136 (protein)
chain: ATMSVGRRKLALLWALALALACTTTHSQPVTRDCHLRCTWTKWFDVDFPSPGPHGGDKETYNNIIRSGEKICRRPEEITRLQCRAESHPEVSIEHLGQVVQCSREEGLVCRNQDQQGPFKMCLNYEVRVLCCETPK
modifications: MUC5AC truncation construct (136)
B8: Construct 1-338: C-terminal truncation construct of MUC5AC, SEQ ID NO: 50 (protein)
chain: ATMSVGRRKLALLWALALALACTTTHSQPVTRDCHLRCTWTKWFDVDFPSPGPHGGDKETYNNIIRSGEKICRRPEEITRLQCRAESHPEVSIEHLGQVVQCSREEGLVCRNQDQQGPFKMCLNYEVRVLCCETPKGCPVTSTPVTAPSTPSGRATSPTQSTSSWQKSRTTTLVTTSTTSTPQTSTTSAPTTSTTSAPTTSTTSAPTTSTTSTPQTSISSAPTSSTTSAPTSSTISARTTSIISAPTTSTTSSPTTSTTSATTTSTTSAPTSSTTSTPQTSKTSAATSSTTSSSGTTPSPVTTTSTASVSKTSTSHVSVSKTTHSQPVTRCTHHHHHH
modifications: MUC5AC truncation construct (338)
B9: 1-338 (protein)
chain: B8 chain
modifications: MUC5AC truncation construct (338)
B10: 1-151 (protein)
chain: ATMSVGRRKLALLWALALALACTTTHSQPVTRDCHLRCTWTKWFDVDFPSPGPHGGDKETYNNIIRSGEKICRRPEEITRLQCRAESHPEVSIEHLGQVVQCSREEGLVCRNQDQQGPFKMCLNYEVRVLCCETPKGCPVTSTPVTAPSTP
modifications: MUC5AC truncation construct (151)

How the values were obtained:
[1] = test system: CFPAC1 culture supernatant; experiment: Peptide competition ELISA on CFPAC1 culture supernatant-coated plates; format: binding, human
Description: FIG. 15A is a bar graph showing the percent blocking of NEO-101 by peptides (identified by biopanning an M13 phage library) on CFPAC1 culture supernatant-coated plates. FIG. 15B is a bar graph of OD values showing blocking of NEO-101 by peptides (identified by biopanning an M13 phage library) on CFPAC1 culture supernatant-coated plates.
Next, the inhibition of NEO-101 beads binding to CFAC1 Cells (rosetted cells) by peptides 4-1-4C12 and 4-1-4C12-R2 was investigated, as shown in FIG. 14A. FIG. 14B was the results from positive control with 4B6 in competitive beads assay. […] Therefore, the peptide 4-1-4-C12 is a peptidomimetic of the NPC-1 epitope and may be used to elicit a NPC-1 specific antibodies.

CFPAC1 cells = experiment: NEO-101-coupled Dynal beads rosette assay; format: cell-based, human; conditions: for Positive rosette cells (%): Dynal beads coupled with NEO-101, premixed with M13 clone
Protocol: The M13 clones identified by the biopanning were also immunoassayed using magnetic beads. Aliquots of 5 μl M13 phage (10^11/10 μl) were mixed with 10 μl NEO-101-coupled Dynal® beads at RT for 20 min on a rotator. CFPAC1 cells (30 μl of 10^6 cells/ml) were added and incubated at 4° C. for 30 min. Rosetted cells were counted (>8 beads/cell).

Colon Ag = experiment: ELISA of NEO-101 binding inhibition by peptides against Colon Ag; parameters: species or system human
Protocol: An ELISA analysis of the NEO-101 binding inhibition by peptide 4-1-3-C9 and 4-1-4-C12 against Colon Ag was conducted. Aliquots of 100 μl/well Colon Ag (3 μg/ml in CBS buffer) in 96 well plate were incubated at 4° C. overnight, and the wells washed three times with TBST (0.05% Tween). The wells were blocked with 200 μl of 1% milk at RT for 1 hour. A pre-mix of NEO-101-biotin and test peptide was added at 100 μl/well and incubated at RT of 1 hour, followed by three washes with TBST. Streptavidin-HRP (100 μl of 1:2000 dilution) was added and the reaction incubated at RT for 1 hour, and the wells washed three time. TMB was added, and the wells were read at 450 nm. The control was NEO-101-biotin.

NEO-101 = experiment: Biotinylated peptide binding ELISA; conditions: biotinylated peptide on NEO-101 coated plate
Protocol: To solve the poor binding of peptides to 96 well plate, peptides were biotinylated using EZ-link micro NHS Biotinylation kit (Pierce Cat #21955), and labeling efficiency checked by dot blot (50%). The biotinylated peptide binding was analyzed in ELISA by adding 100 μl/well of NEO-101 (1 μg/ml) in CBS buffer to 96 well plate and incubating at 4° C. overnight, followed by three washes with TBST (0.05% Tween). The solution was blocked with 200μ/of 1% milk in TBS at RT for 20 min. Aliquots of 100 μl peptide-biotin ([…]) in 0.1% milk-TBS were added, and incubated at RT of 2 hr, followed by three washes with TBST. Streptavidin-HRP (100 μl of 1:2000 diluted in 1:10 diluted blocking buffer) was added, and the wells incubated at RT for 1 hr, followed by three washed. TMB was then added, and the wells were read at 450 nm. Positive controls for NPC-1C binding used 4B6-biotin. The results are shown in FIG. 11, which indicates biotinylated peptides bind to NPC-1C coated plate.

NEO-101 antibody = experiment: Immunofluorescence of 293T cells transfected with MUC5AC truncation constructs; format: cell-based; conditions: 2 μg/ml NEO-101 antibody
Protocol: Six truncation constructs were made representing C-terminal truncations of the full-length MUC5AC protein (SEQ ID NO: 36).
293T cells were cultured on FBS coated cover slips for 24 hours. Cells were transiently transfected with 2 μg of MUC5AC constructs of Table 8 with LIPOFECTAMINE®. Cells were grown for about 72 hours, fixed with about 4% PFA in PBS, washed with PBS, permeabilized with about 0.2% […] in PBS and washed with PBS. Cells were then blocked with about 1% BSA in PBS, and about 2 μg/ml NEO-101 antibody was added to sample wells and about 2 μg/ml of an Isotype control was added for 1 hour at room temp. Cells were washed with PBS and second anti human-FITC antibody (1:500) was added to all wells and to the second antibody control wells. Cells were washed and mounted on slides with DAPI hard mount. Cover slides were allowed to sit over night at about 4° C. Slides were visualized with a Nikon Eclipse Ti microscope with an Andor camera. At least 3 random fields were counted per transfection.

Molecule	Positive rosette cells (%) (CFPAC1 cells)	Binds NPC-1? (NEO-101 antibody)	other results
SLPDDWFRYINYSLPDDWFRYINY (NPC-1 epitope peptidomimetic) [Peptide 4-1-4C12-R2]	–	–	competition against bound CFPAC1 antigen with NEO-101 binding [1]: significant competition
YSHSFPEDYFRYTNQKGGGS (NPC-1 epitope peptidomimetic) [Peptide 4-1-3-C9]	0%	–	blocking of NEO-101-coupled beads binding to CFPAC1 cells (CFPAC1 cells): blocked; Blocking of NEO-101 antibody binding to colon Ag (Colon Ag): Yes; competition against bound CFPAC1 antigen with NEO-101 binding [1]: significant competition; NEO-101 binding (NEO-101): Yes
YSHSSLPDDWFRYINYGGGS (NPC-1 epitope peptidomimetic) [Peptide 4-1-4-C12]	0%	–	blocking of NEO-101-coupled beads binding to CFPAC1 cells (CFPAC1 cells): blocked; Blocking of NEO-101 antibody binding to colon Ag (Colon Ag): Yes; competition against bound CFPAC1 antigen with NEO-101 binding [1]: higher inhibition in low concentration comparing with 4-1-3C9; NEO-101 binding (NEO-101): Yes
YSHSVHAIEDNWSPRGGGGS (NPC-1 epitope peptidomimetic) [Peptide 4-1-3-C11, reference compound]	38%	–	Blocking of NEO-101 antibody binding to colon Ag (Colon Ag): No; NEO-101 binding (NEO-101): No
YSHSWHTLPEKSLDENGGGS (NPC-1 epitope peptidomimetic) [Peptide 4-1-2-C5]	0%	–	blocking of NEO-101-coupled beads binding to CFPAC1 cells (CFPAC1 cells): blocked
YSHSWHTLPESGEVTSGGGS (NPC-1 epitope peptidomimetic) [Peptide 4-1-3-C8]	0%	–	blocking of NEO-101-coupled beads binding to CFPAC1 cells (CFPAC1 cells): blocked; Blocking of NEO-101 antibody binding to colon Ag (Colon Ag): No; NEO-101 binding (NEO-101): Yes
B1	–	binding activity	–
B2	–	Yes	–
B3	–	no binding	–
B4	–	No	–
B5	–	binding activity	–
B6	–	Yes	–
B7	–	No	–
B8	–	binding activity	–
B9	–	Yes	–
B10	–	Yes	–
